Measured values reported in US20100267561A1, “HERBICIDAL PYRIDAZINONE DERIVATIVES” (priority 2007, published 2010).

Columns and labels:
Format in all cases: in vivo
[1] = test system: canarygrass (Phalaris minor); assay: Test B postemergence plant response; conditions: for Canarygrass plant response rating: 8 g ai/ha, postemergence, 0-100 scale; for Plant response rating, Canarygrass: Postemergence
In short: (§1)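 Visual injury score from 0 (none) to 100 (complete control) versus controls, taken 13 to 15 days after treatment in the greenhouse; chemicals applied postemergence, as formulated, to plants of 1- to 4-leaf stage (2 to 18 cm tall); dash denotes no test result.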

[2] = test system: chickweed (Stellaria media); assay: Test B postemergence plant response; conditions: for Chickweed plant response rating: 8 g ai/ha, postemergence, 0-100 scale; for Plant response rating, Chickweed: Postemergence
In short: as §1

[3] = test system: winter barley (Hordeum vulgare); assay: Test B postemergence plant response; conditions: for Barley plant response rating: 8 g ai/ha, postemergence, 0-100 scale; for Plant response rating, Barley: Postemergence, scale 0 to 100, 0 no effect, 100 complete control
In short: as §1

[4] = test system: windgrass (Apera spica-venti); assay: Test B postemergence plant response; conditions: for Windgrass plant response rating: 8 g ai/ha, postemergence, 0-100 scale; for Plant response rating, Windgrass: Postemergence
In short: as §1

[5] = test system: ducksalad (Heteranthera limosa); assay: Test B flooded paddy test plant response
In short: (§2)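 Paddy-water application to 2-leaf plants in pots held under 3 cm of flooding; response is a 0–100 visual control rating against controls after 13 to 15 days, and a dash marks a missing result.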

[6] = test system: umbrella sedge (Cyperus difformis); assay: Test B flooded paddy test plant response
In short: as §2

[7] = test system: barnyardgrass (Echinochloa crus-galli); assay: Test B flooded paddy test plant response
In short: as §2

[8] = test system: morningglory (Ipomoea coccinea); assay: Test A pre-/postemergence plant response
In short: (§3)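 Ratings run 0–100 (100 = complete control), assigned visually against untreated controls roughly 10 days after treatment in a greenhouse. Compounds, formulated in non-phytotoxic solvent containing surfactant, were applied as a soil-directed preemergence spray and concurrently postemergence to one- to two-leaf plants 2–10 cm tall.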

[9] = test system: large crabgrass (Digitaria sanguinalis); assay: Test A pre-/postemergence plant response
In short: as §3

[10] = test system: velvetleaf (Abutilon theophrasti); assay: Test A pre-/postemergence plant response
In short: as §3

[11] = test system: wheat (Triticum aestivum); assay: Test A pre-/postemergence plant response
In short: as §3

[12] = test system: pigweed (Amaranthus retroflexus); assay: Test A pre-/postemergence plant response
In short: as §3

[13] = test system: barnyardgrass (Echinochloa crus-galli); assay: Test A pre-/postemergence plant response
In short: as §3

[14] = test system: giant foxtail (Setaria faberi); assay: Test A pre-/postemergence plant response
In short: as §3

[15] = 62 g ai/ha, scale 0 to 100, 0 no effect, 100 complete control
[16] = Flood (flooded paddy test), 62 g ai/ha, scale 0 to 100, 0 no effect, 100 complete control
[17] = Flood (flooded paddy test), 250 g ai/ha, scale 0 to 100, 0 no effect, 100 complete control
[18] = Postemergence, 31 g ai/ha, 0 to 100 scale, 0 no effect, 100 complete control
[19] = Postemergence, 125 g ai/ha, 0 to 100 scale, 0 no effect, 100 complete control
[20] = Preemergence, 31 g ai/ha, 0 to 100 scale, 0 is no effect, 100 is complete control
[21] = Preemergence, 125 g ai/ha, 0 to 100 scale (0 no effect, 100 complete control)
[22] = Flood (flooded paddy test), 125 g ai/ha, scale 0 to 100, 0 no effect, 100 complete control
[23] = Flood, 31 g ai/ha, scale 0 to 100

Cc1cc(-c2ccc(Cl)cc2)nn1-c1c(OC(=O)Oc2ccccc2)cnn(C)c1=O [Compound 54]
Canarygrass plant response rating [1]: 0 | Plant response rating, Canarygrass ([1]; 16 g ai/ha, scale 0 to 100): 0 | Plant response rating, Canarygrass ([1]; 31 g ai/ha, scale 0 to 100): 0 | Plant response rating, Canarygrass [1, 15]: 0 | Chickweed plant response rating [2]: 0 | Plant response rating, Chickweed ([2]; 16 g ai/ha, scale 0 to 100): 0 | Plant response rating, Chickweed ([2]; 31 g ai/ha, scale 0 to 100): 0 | Plant response rating, Chickweed [2, 15]: 0 | Barley plant response rating [3]: 0 | Plant response rating, Barley ([3]; 16 g ai/ha): 0 | Plant response rating, Barley ([3]; 31 g ai/ha): 0 | Plant response rating, Barley ([3]; 62 g ai/ha): 0 | Windgrass plant response rating [4]: 0 | Plant response rating, Windgrass ([4]; 16 g ai/ha, scale 0 to 100): 20 | Plant response rating, Windgrass ([4]; 31 g ai/ha, scale 0 to 100): 20 | Plant response rating, Windgrass [4, 15]: 80 | Plant response rating, Ducksalad [5, 16]: 0 | Plant response rating, Ducksalad [5, 17]: 0 | Plant response rating, Sedge, Umbrella [6, 16]: 0 | Plant response rating, Sedge, Umbrella [6, 17]: 0 | Plant response rating, Barnyardgrass [7, 16]: 20 | Plant response rating, Barnyardgrass [7, 17]: 80 | Plant response rating, Morningglory [8, 18]: 0 | Plant response rating, Morningglory [8, 19]: 0 | Plant response rating, Morningglory [8, 20]: 0 | Plant response rating, Morningglory [8, 21]: 20 | Plant response rating, Crabgrass, Large [9, 18]: 70 | Plant response rating, Crabgrass, Large [9, 19]: 90 | Plant response rating, Crabgrass, Large [9, 20]: 60 | Plant response rating, Crabgrass, Large [9, 21]: 100 | Plant response rating, Velvetleaf [10, 18]: 0 | Plant response rating, Velvetleaf [10, 19]: 0 | Plant response rating, Velvetleaf [10, 20]: 0 | Plant response rating, Velvetleaf [10, 21]: 0 | Plant response rating, Wheat [11, 18]: 30 | Plant response rating, Wheat [11, 19]: 60 | Plant response rating, Wheat [11, 20]: 0 | Plant response rating, Wheat [11, 21]: 60 | Plant response rating, Pigweed [12, 18]: 0 | Plant response rating, Pigweed [12, 19]: 0 | Plant response rating, Pigweed [12, 20]: 0 | Plant response rating, Pigweed [12, 21]: 0 | Plant response rating, Barnyardgrass [13, 18]: 80 | Plant response rating, Barnyardgrass [13, 19]: 100 | Plant response rating, Barnyardgrass [13, 20]: 70 | Plant response rating, Barnyardgrass [13, 21]: 100 | Plant response rating, Foxtail, Giant [14, 18]: 90 | Plant response rating, Foxtail, Giant [14, 19]: 100 | Plant response rating, Foxtail, Giant [14, 20]: 90 | Plant response rating, Foxtail, Giant [14, 21]: 100

CCCC(=O)Oc1cnn(C)c(=O)c1-n1nc(-c2ccc(Cl)cc2)cc1C [Compound 56]
Canarygrass plant response rating [1]: 50 | Plant response rating, Canarygrass ([1]; 16 g ai/ha, scale 0 to 100): 85 | Plant response rating, Canarygrass ([1]; 31 g ai/ha, scale 0 to 100): 90 | Plant response rating, Canarygrass [1, 15]: 95 | Chickweed plant response rating [2]: 0 | Plant response rating, Chickweed ([2]; 16 g ai/ha, scale 0 to 100): 0 | Plant response rating, Chickweed ([2]; 31 g ai/ha, scale 0 to 100): 0 | Plant response rating, Chickweed [2, 15]: 0 | Barley plant response rating [3]: 0 | Plant response rating, Barley ([3]; 16 g ai/ha): 40 | Plant response rating, Barley ([3]; 31 g ai/ha): 50 | Plant response rating, Barley ([3]; 62 g ai/ha): 75 | Windgrass plant response rating [4]: 0 | Plant response rating, Windgrass ([4]; 16 g ai/ha, scale 0 to 100): 0 | Plant response rating, Windgrass ([4]; 31 g ai/ha, scale 0 to 100): 20 | Plant response rating, Windgrass [4, 15]: 20 | Plant response rating, Ducksalad [5, 16]: 0 | Plant response rating, Ducksalad [5, 22]: 40 | Plant response rating, Ducksalad [5, 17]: 75 | Plant response rating, Ducksalad [5, 23]: 0 | Plant response rating, Sedge, Umbrella [6, 16]: 75 | Plant response rating, Sedge, Umbrella [6, 22]: 85 | Plant response rating, Sedge, Umbrella [6, 17]: 85 | Plant response rating, Sedge, Umbrella [6, 23]: 70 | Plant response rating, Barnyardgrass [7, 16]: 0 | Plant response rating, Barnyardgrass [7, 22]: 20 | Plant response rating, Barnyardgrass [7, 17]: 60 | Plant response rating, Barnyardgrass [7, 23]: 0 | Plant response rating, Morningglory [8, 18]: 0 | Plant response rating, Morningglory [8, 19]: 0 | Plant response rating, Morningglory [8, 20]: 0 | Plant response rating, Morningglory [8, 21]: 0 | Plant response rating, Crabgrass, Large [9, 18]: 80 | Plant response rating, Crabgrass, Large [9, 19]: 100 | Plant response rating, Crabgrass, Large [9, 20]: 70 | Plant response rating, Crabgrass, Large [9, 21]: 100 | Plant response rating, Velvetleaf [10, 18]: 0 | Plant response rating, Velvetleaf [10, 19]: 0 | Plant response rating, Velvetleaf [10, 20]: 0 | Plant response rating, Velvetleaf [10, 21]: 0 | Plant response rating, Wheat [11, 18]: 70 | Plant response rating, Wheat [11, 19]: 80 | Plant response rating, Wheat [11, 20]: 20 | Plant response rating, Wheat [11, 21]: 80 | Plant response rating, Pigweed [12, 18]: 0 | Plant response rating, Pigweed [12, 19]: 0 | Plant response rating, Pigweed [12, 20]: 0 | Plant response rating, Pigweed [12, 21]: 0 | Plant response rating, Barnyardgrass [13, 18]: 100 | Plant response rating, Barnyardgrass [13, 19]: 100 | Plant response rating, Barnyardgrass [13, 20]: 80 | Plant response rating, Barnyardgrass [13, 21]: 100 | Plant response rating, Foxtail, Giant [14, 18]: 100 | Plant response rating, Foxtail, Giant [14, 19]: 100 | Plant response rating, Foxtail, Giant [14, 20]: 90 | Plant response rating, Foxtail, Giant [14, 21]: 100
